Source: patent publication US20100004234A1, “SPECIFIC KINASE INHIBITORS” (Kosan Biosciences Incorporated, priority 2004, published 2010)

What was measured:
Test in all cases: Kinase panel, residual activity
Format in all cases: biochemical
Conditions in all cases: read-out: Percent residual activity
CDK2/cyclinA(h) = CDK2/cyclinA(h) (Homo sapiens, UniProt P24941)
Method: (§1) In this panel of 124 kinases, 18 of the 19 kinases identified as having an active site cysteine were inhibited to some extent by hypothemycin at a concentration of 0.2 μM and/or 2 μM.

TrkA(h) = TrkA(h) (Homo sapiens, UniProt P04629)
Sequence of TrkA(h) (P04629 33-796): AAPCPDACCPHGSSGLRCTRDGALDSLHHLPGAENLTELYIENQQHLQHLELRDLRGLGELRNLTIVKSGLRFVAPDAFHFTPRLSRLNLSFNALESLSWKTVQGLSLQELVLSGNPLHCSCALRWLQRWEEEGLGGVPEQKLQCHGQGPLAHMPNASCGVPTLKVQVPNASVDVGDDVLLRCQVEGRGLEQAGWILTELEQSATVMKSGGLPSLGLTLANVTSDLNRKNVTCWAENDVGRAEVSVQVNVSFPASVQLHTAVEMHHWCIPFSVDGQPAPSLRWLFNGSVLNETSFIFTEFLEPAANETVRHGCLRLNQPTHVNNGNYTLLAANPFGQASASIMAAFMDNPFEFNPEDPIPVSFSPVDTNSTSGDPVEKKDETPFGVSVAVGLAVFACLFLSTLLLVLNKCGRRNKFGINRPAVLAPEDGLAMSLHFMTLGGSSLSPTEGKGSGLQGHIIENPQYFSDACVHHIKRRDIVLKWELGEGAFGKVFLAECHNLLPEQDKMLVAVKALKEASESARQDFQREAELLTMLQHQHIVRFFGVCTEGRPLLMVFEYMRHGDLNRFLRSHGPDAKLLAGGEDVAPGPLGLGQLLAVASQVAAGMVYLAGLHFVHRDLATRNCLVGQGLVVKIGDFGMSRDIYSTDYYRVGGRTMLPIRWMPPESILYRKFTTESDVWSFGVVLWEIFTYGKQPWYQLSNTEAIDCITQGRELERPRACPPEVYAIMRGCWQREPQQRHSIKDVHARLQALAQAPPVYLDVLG
Method: as §1

SAPK4(h) = SAPK4(h) (Homo sapiens, UniProt O15264)
Method: as §1

cKit(D816V)(h) = cKit(D816V)(h) (Homo sapiens, UniProt P10721, D816V)
Method: as §1

Abl(T315I)(h) = Abl(T315I)(h) (Homo sapiens, UniProt P00519, T315I)
Method: as §1

Lyn(h) = Lyn(h) (Homo sapiens, UniProt P07948)
Sequence of Lyn(h) (P07948 whole entry): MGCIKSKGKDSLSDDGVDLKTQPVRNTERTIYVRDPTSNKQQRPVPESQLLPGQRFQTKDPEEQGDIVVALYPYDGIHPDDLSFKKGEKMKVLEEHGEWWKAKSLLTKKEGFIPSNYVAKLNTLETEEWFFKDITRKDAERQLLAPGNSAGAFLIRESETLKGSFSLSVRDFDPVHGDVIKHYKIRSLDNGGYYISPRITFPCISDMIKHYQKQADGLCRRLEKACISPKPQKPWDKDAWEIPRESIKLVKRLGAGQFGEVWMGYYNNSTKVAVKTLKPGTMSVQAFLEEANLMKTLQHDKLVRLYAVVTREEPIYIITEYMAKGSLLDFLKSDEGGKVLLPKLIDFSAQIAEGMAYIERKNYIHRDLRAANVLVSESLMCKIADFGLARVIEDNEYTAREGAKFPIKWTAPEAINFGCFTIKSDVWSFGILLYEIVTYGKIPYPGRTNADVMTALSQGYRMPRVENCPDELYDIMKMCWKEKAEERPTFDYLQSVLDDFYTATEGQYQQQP
Method: as §1

Ron(h) = Ron(h) (Homo sapiens, UniProt Q04912)
Method: as §1

PKCι(h) = PKCι(h) (Homo sapiens, UniProt P41743)
Method: as §1

cSRC(h) = cSRC(h) (Homo sapiens, UniProt P12931)
Sequence of cSRC(h) (P12931 whole entry): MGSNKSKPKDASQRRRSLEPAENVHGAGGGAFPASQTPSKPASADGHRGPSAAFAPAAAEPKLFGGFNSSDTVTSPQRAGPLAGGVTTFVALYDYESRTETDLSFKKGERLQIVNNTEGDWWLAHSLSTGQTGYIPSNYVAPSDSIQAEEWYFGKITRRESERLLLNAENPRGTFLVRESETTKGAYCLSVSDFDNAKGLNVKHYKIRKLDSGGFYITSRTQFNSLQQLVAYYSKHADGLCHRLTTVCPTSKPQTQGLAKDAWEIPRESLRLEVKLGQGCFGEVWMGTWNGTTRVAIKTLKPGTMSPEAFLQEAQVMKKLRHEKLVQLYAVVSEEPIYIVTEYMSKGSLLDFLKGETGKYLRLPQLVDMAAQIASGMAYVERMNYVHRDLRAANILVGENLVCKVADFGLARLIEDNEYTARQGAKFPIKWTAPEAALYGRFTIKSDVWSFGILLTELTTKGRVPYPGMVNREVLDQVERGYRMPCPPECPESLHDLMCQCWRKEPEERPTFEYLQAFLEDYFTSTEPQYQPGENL
Method: as §1

PKCζ(h) = PKCζ(h) (Homo sapiens, UniProt Q05513)
Method: as §1

Abl(h) = Abl(h) (Homo sapiens, UniProt P00519)
Method: as §1

GSK3α(h) = GSK3α(h) (Homo sapiens, UniProt P49840)
Sequence of GSK3α(h) (P49840 whole entry): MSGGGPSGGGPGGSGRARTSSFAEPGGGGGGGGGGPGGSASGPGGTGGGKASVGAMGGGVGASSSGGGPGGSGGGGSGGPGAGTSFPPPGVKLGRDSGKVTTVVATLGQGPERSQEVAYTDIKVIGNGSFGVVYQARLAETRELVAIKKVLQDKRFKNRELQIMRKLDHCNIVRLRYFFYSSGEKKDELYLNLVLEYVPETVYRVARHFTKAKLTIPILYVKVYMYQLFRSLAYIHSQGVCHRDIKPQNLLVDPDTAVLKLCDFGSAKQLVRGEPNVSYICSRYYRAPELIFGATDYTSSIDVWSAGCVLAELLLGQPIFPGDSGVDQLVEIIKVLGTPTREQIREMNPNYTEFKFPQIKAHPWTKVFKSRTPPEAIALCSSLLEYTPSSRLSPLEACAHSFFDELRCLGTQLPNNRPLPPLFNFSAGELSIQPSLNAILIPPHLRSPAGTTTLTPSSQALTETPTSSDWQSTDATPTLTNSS
Method: as §1

PKCδ(h) = PKCδ(h) (Homo sapiens, UniProt Q05655)
Method: as §1

PKD2(h) = PKD2(h) (Homo sapiens, UniProt Q9BZL6)
Method: as §1

ROCK-I(h) = ROCK-I(h) (Homo sapiens, UniProt Q13464)
Method: as §1

Ros(h) = Ros(h) (Homo sapiens, UniProt P08922)
Method: as §1

PAK2(h) = PAK2(h) (Homo sapiens, UniProt Q13177)
Method: as §1

TAK1(h) = TAK1(h) (Homo sapiens, UniProt O43318)
Sequence of TAK1(h) (O43318 1-303 limits assumed): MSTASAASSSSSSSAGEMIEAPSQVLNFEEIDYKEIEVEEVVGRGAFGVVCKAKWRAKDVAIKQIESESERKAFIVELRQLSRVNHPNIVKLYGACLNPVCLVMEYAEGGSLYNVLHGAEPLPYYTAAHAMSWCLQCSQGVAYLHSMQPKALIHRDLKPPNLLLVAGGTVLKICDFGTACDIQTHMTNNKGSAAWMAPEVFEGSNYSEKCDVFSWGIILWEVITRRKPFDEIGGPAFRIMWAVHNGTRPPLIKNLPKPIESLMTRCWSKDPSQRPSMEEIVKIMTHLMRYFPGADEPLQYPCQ
Sequence of TAK1(h) (Q15750 437-504 partner limits assumed): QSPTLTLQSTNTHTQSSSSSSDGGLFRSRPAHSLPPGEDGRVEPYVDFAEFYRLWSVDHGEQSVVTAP
Method: as §1

FGFR1(h) = FGFR1(h) (Homo sapiens, UniProt P11362)
Method: as §1

ZIPK(h) = ZIPK(h) (Homo sapiens, UniProt O43293)
Method: as §1

CDK3/cyclinE(h) = CDK3/cyclinE(h) (Homo sapiens, UniProt Q00526)
Method: as §1

JNK2α2(h) = JNK2α2(h) (Homo sapiens, UniProt P45984)
Method: as §1

IKKβ(h) = IKKβ(h) (Homo sapiens, UniProt O14920)
Sequence of IKKβ(h) (O14920 whole entry): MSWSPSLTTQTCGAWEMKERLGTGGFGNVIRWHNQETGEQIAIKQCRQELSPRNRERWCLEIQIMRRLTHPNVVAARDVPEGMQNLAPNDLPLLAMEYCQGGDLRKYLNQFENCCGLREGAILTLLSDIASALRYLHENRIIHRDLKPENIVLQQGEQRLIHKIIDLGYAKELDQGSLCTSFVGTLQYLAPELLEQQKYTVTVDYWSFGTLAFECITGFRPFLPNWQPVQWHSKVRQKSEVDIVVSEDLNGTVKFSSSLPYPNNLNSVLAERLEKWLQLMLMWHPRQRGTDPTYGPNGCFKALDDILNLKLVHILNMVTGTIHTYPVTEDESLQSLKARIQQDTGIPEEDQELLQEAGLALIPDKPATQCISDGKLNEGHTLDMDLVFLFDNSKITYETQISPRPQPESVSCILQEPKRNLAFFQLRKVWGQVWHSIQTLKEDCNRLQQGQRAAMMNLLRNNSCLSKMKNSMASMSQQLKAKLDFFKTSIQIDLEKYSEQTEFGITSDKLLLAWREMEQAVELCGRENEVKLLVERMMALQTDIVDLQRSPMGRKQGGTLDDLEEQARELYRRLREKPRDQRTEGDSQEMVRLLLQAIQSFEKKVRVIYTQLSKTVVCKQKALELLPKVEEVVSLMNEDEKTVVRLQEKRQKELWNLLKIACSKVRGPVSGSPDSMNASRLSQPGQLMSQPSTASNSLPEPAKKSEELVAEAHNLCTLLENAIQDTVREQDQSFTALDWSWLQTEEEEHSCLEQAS
Method: as §1

Pyk2(h) = Pyk2(h) (Homo sapiens, UniProt Q14289)
Method: as §1

PKCθ(h) = PKCθ(h) (Homo sapiens, UniProt Q04759)
Method: as §1

Arg(h) = Arg(h) (Homo sapiens, UniProt P42684)
Method: as §1

SAPK2a(h) = SAPK2a(h) (Homo sapiens, UniProt Q16539)
Method: as §1

Fms(h) = Fms(h) (Homo sapiens, UniProt P07333)
Sequence of Fms(h) (P07333 20-972): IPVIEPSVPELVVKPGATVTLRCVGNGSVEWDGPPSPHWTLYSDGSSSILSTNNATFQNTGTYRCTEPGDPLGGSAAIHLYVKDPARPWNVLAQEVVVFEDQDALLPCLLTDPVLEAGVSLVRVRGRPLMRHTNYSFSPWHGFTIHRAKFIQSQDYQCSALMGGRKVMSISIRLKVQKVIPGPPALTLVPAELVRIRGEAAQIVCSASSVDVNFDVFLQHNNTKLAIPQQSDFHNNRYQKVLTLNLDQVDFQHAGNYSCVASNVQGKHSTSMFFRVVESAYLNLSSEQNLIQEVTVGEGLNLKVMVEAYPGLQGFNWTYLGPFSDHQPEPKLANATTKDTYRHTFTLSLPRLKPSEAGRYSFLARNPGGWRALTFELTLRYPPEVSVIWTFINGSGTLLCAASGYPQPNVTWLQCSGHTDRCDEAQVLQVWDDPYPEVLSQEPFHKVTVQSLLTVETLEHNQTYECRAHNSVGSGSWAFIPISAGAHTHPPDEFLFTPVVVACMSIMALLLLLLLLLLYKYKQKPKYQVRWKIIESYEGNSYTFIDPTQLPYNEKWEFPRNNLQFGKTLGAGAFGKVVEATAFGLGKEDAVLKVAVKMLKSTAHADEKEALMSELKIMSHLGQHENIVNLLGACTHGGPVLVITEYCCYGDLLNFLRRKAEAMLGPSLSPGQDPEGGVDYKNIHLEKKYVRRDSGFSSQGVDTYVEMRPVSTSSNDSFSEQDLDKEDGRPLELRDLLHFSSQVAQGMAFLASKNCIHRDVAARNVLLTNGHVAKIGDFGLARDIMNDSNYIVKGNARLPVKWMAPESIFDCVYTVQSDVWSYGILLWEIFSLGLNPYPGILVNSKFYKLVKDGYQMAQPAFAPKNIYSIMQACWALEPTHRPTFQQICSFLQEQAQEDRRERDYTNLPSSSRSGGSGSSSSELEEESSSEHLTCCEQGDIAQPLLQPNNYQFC
Method: as §1

Hck(h) = Hck(h) (Homo sapiens, UniProt P08631)
Sequence of Hck(h) (P08631 whole entry): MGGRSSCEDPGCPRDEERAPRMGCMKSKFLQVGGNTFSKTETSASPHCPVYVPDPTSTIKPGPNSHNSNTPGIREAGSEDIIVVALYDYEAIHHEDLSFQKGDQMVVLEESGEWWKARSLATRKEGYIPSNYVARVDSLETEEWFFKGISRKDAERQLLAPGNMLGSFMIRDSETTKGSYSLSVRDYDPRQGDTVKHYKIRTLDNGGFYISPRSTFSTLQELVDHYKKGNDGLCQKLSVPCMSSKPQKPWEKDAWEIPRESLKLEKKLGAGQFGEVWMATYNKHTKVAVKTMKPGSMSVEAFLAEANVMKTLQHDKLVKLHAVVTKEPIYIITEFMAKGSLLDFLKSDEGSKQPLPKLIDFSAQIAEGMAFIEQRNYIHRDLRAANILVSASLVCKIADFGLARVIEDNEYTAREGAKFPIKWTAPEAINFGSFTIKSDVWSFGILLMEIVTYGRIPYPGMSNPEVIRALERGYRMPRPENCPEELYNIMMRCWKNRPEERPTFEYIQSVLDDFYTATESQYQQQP
Method: as §1

KDR = KDR (Homo sapiens, UniProt P35968)
Method: as §1

c-RAF(h) = c-RAF(h) (Homo sapiens, UniProt P04049)
Method: as §1

Axl(h) = Axl(h) (Homo sapiens, UniProt P30530)
Method: as §1

PAR-1Bα(h) = PAR-1Bα(h) (Homo sapiens, UniProt Q7KZI7)
Method: as §1

NEK7(h) = NEK7(h) (Homo sapiens, UniProt Q8TDX7)
Method: as §1

ZAP-70(h) = ZAP-70(h) (Homo sapiens, UniProt P43403)
Method: as §1

Rsk3(h) = Rsk3(h) (Homo sapiens, UniProt Q15349)
Method: as §1

PRK2(h) = PRK2(h) (Homo sapiens, UniProt Q16513)
Method: as §1

## COc1cc(O)c2c(c1)[C@H]1O[C@@H]1C[C@H](O)[C@H](O)C(=O)/C=C\C[C@H](C)OC2=O [Hypothemycin, hypothemycin]
CDK2/cyclinA(h); 0.2 μM
  remaining activity at 0.2 µM: 634%
CDK2/cyclinA(h); 2.0 μM
  remaining activity at 2 µM: 106%
TrkA(h); 0.2 μM
  remaining activity at 0.2 µM: 22%
TrkA(h); 2.0 μM
  remaining activity at 2 µM: 1%
SAPK4(h)
  remaining activity at 0.2 µM: 101%
cKit(D816V)(h); 0.2 μM
  remaining activity at 0.2 µM: 57%
cKit(D816V)(h); 2.0 μM
  remaining activity at 2 µM: 0%
Abl(T315I)(h)
  remaining activity at 0.2 µM: 90%
Lyn(h); 0.2 μM
  remaining activity at 0.2 µM: 82%
Lyn(h); 2.0 μM
  remaining activity at 2 µM: 83%
Ron(h)
  remaining activity at 0.2 µM: 91%
PKCι(h)
  remaining activity at 0.2 µM: 108%
cSRC(h); 0.2 μM
  remaining activity at 0.2 µM: 75%
cSRC(h); 2.0 μM
  remaining activity at 2 µM: 49%
PKCζ(h)
  remaining activity at 0.2 µM: 94%
Abl(h)
  remaining activity at 0.2 µM: 98%
GSK3α(h); 0.2 μM
  remaining activity at 0.2 µM: 90%
GSK3α(h); 2.0 μM
  remaining activity at 2 µM: 88%
PKCδ(h)
  remaining activity at 0.2 µM: 96%
PKD2(h); 0.2 μM
  remaining activity at 0.2 µM: 31%
PKD2(h); 2.0 μM
  remaining activity at 2 µM: -2%
ROCK-I(h)
  remaining activity at 0.2 µM: 121%
Ros(h)
  remaining activity at 0.2 µM: 97%
PAK2(h)
  remaining activity at 0.2 µM: 104%
TAK1(h); 0.2 μM
  remaining activity at 0.2 µM: 12%
TAK1(h); 2.0 μM
  remaining activity at 2 µM: 5%
FGFR1(h)
  remaining activity at 0.2 µM: 99%
ZIPK(h)
  remaining activity at 0.2 µM: 96%
CDK3/cyclinE(h)
  remaining activity at 0.2 µM: 95%
JNK2α2(h)
  remaining activity at 0.2 µM: 93%
IKKβ(h); 0.2 μM
  remaining activity at 0.2 µM: 81%
IKKβ(h); 2.0 μM
  remaining activity at 2 µM: 94%
Pyk2(h)
  remaining activity at 0.2 µM: 84%
PKCθ(h)
  remaining activity at 0.2 µM: 104%
Arg(h)
  remaining activity at 0.2 µM: 98%
SAPK2a(h)
  remaining activity at 0.2 µM: 107%
Fms(h); 0.2 μM
  remaining activity at 0.2 µM: 91%
Fms(h); 2.0 μM
  remaining activity at 2 µM: 90%
Hck(h); 0.2 μM
  remaining activity at 0.2 µM: 78%
Hck(h); 2.0 μM
  remaining activity at 2 µM: 91%
KDR
  remaining activity at 2 µM: 15%
c-RAF(h)
  remaining activity at 0.2 µM: 103%
Axl(h)
  remaining activity at 0.2 µM: 110%
PAR-1Bα(h)
  remaining activity at 0.2 µM: 93%
NEK7(h)
  remaining activity at 0.2 µM: 98%
ZAP-70(h)
  remaining activity at 0.2 µM: 111%
Rsk3(h)
  remaining activity at 0.2 µM: 94%
PRK2(h)
  remaining activity at 0.2 µM: 108%
